Earlier results as cited in article PMC11035696, “Prospective de novo drug design with deep interactome learning” (Nature Communications, 2024).

System: PPARγ
Settings: known PPARγ activity of ChEMBL ligands; ref ChEMBL database; cited from earlier work

## CCCc1cc(C(F)(F)F)ccc1OCCCOc1ccc(OCC(=O)O)c(C)c1 [ChEMBL213355]
  pEC50: 6.82

## Cc1sc(-c2ccccc2F)nc1CCOc1ccc2c(c1)CC[C@H]2CC(=O)O [ChEMBL391987]
  pEC50: 6.94

## Cc1cc(OCC[C@@H](C)Oc2ccc(Cl)cc2-c2ccccn2)ccc1CCC(=O)O [ChEMBL241299]
  pEC50: 6.51
